Read-outs that look alike come from different tables or passages of the source.
How the values were obtained:
[1] = mouse, in vivo, iv; cited from earlier work
[2] = test system: subcutaneous rat gliosarcomas; conditions: in vivo; cited from earlier work
[3] = human, in vivo; cited from earlier work
[4] = test system: bladder cancer; conditions: human, in vivo, cited from earlier work
[5] = test system: M-1 tumor; assay: Light dose-response study at 690 nm (FIG. 5); type: in vivo, mice; conditions: 2 mg/kg BPD-MA, three hours post injection
Method: FIG. 5 illustrates a light dose-response study at 690 nm and with a BPD-MA dose of 2 mg/kg. […] Light exposure took place three hours after the injection of 2 mg/kg BPD-MA.
FIG. 5 summarizes results of a test involving the same mouse-tumor model, in which five different light exposures (50, 75, 100, 125 and 150 J/cm^2) were used three hours post injection with 2 mg/kg BPD-MA. Under this regimen, which is similar to current clinical regimens, 75% of the mice receiving 150 J/cm^2 and 50% of the mice receiving 125 J/cm^2 were tumor free at 14 days.

[6] = test system: M-1 tumor; assay: Anti-tumor efficacy BPD-MA dose-response study (FIG. 4); type: in vivo, mice; conditions: 2.0 mg/kg (only group of 0.5, 1.0, 1.5, 2.0 mg/kg); 150 J/cm^2; three hours post injection
Method: FIG. 4 illustrates an anti-tumor efficacy dose-response study for BPD-MA, liposomal formulation. […] Light exposure took place three hours after injection.
For comparison, FIGS. 4 and 5 are provided. FIG. 4 summarizes results of a test involving the same mouse-tumor model, in which four different BPD-MA doses were given (0.5, 1.0, 1.5, and 2.0 mg/kg). Light exposure was 150 J/cm^2, administered after a post injection interval of three hours of darkness. Under this regimen, which is similar to current clinical regimens, the only group that was over 50% tumor free at 14 days was that group of mice receiving 2.0 mg/kg.

[7] = test system: M-1 (murine rhabdomyosarcoma) tumor; assay: Pilot study of shorter post injection intervals: PDT of M-1 tumor-bearing mice, light 15 min after liposomal BPD-MA; type: in vivo, DBA/2 mice; conditions: light 15 min post injection
Method: Liposomal BPD was dried and stored frozen at -20° C. in 1 ml aliquots. The appropriate number of aliquots were thawed immediately before use and diluted with 5% dextrose in water for injection into the animals.
Male DBA/2 mice (7-11 weeks old; Charles River Laboratories, St. Constant, Quebec, Canada) were used in these studies, unless otherwise specified. Shaving and depilation removed the hair very effectively from appropriate body surfaces. The mice were shaved and depilated with a commercially available depilator (Nair®) at least one day before being used in the experiments. Following injection the mice were kept in the dark for various lengths of time, as described below. Before and after the experiments the mice were kept in an animal facility with 12 hours of light and 12 hours of dark daily.
An argon pumped dye laser, whose power source was obtained from Spectra Physics (Series 2000, Mountain View, Calif.) and whose 5W argon ion pumped dye laser was obtained from Coherent (Model 599, Palo Alto, Calif.) was used to deliver a columnated beam of light having a wavelength of 690 (±3) nm. The argon laser was aimed at the skin to irradiate the tumor. The time of light exposure was varied to give different light doses, such as 50, 75 and 100 Joules/cm^2.
DBA/2 mice (weight 22±1 g) were used in this study. […]

[8] = test system: M-1 tumor cells; assay: Dose ranging study: drug dose, light dose and post injection interval, M-1 tumor-bearing mice; type: in vivo, DBA/2 mice
[9] = test system: M-1 tumor; assay: Comparison PDT with light three hours post injection (FIG. 3), M-1 tumor mouse; conditions: 2.0 mg/kg BPD-MA, 100 J/cm^2, 4 days (FIG. 3)
[10] = mouse, in vivo, iv, cited from earlier work
[11] = 0.5 mg/kg, 50 J/cm^2, 30 min post injection, 2 mice, interim
[12] = 0.5 mg/kg, 75 J/cm^2, 15 min post injection, 2 mice, interim
[13] = 0.5 mg/kg, 100 J/cm^2, 15 min post injection, 5 mice, interim
[14] = 1.0 mg/kg, 50 J/cm^2, 15 min post injection, 4 mice, interim
[15] = 1.0 mg/kg, 50 J/cm^2, 30 min post injection, 5 mice, interim
[16] = 1.0 mg/kg, 75 J/cm^2, 15 min post injection, 5 mice, interim
[17] = 1.0 mg/kg, 100 J/cm^2, 15 min post injection, 4 mice, interim

Compound: C=Cc1c(C)c2cc3nc(cc4[nH]c(cc5nc(cc1[nH]2)C1(C)C5=CC=C(C(=O)OC)C1C(=O)OC)c(C)c4CCC(=O)O)C(CCC(=O)OC)=C3C (stereo not drawn) [BPD-MB]
- Tumor-skin ratios [1]: favorable

Compound: hematoporphyrin derivative
- safety of direct injection compared with parenteral injection [2]: direct injection appeared to be safer than parenteral injection

Compound: porfimer sodium
- duration of photosensitivity (patient warning) [3]: six
- relationship of photosensitivity to injected drug dose [3]: no apparent relationship of photosensitivity to injected drug dose
- time of occurrence of skin phototoxicity ([4]; iv, 2 mg/kg): ≤ 10 days
- patients with irritative bladder symptoms [4]: Five

Compound: benzoporphyrin derivative monoacid ring A [BPD-MA]
- tumor free at 14 days ([5]; 125 J/cm^2): 50%
- tumor free at 14 days ([5]; 150 J/cm^2): 75%
- tumor free at 14 days [6]: over 50%
- survival of mouse ([7]; 0.5 mg/kg BPD-MA, 75 J/cm^2, 24 hours (FIG. 2)): alive
- survival of mouse ([7]; 1 mg/kg BPD-MA, 100 J/cm^2, 48 hours (FIG. 1)): alive
- mice that developed tumors ([8]; 0.5 mg/kg BPD-MA, 50 J/cm^2, 30 minutes post injection): all mice developed tumors
- tumor free at day 7 ([8]; 0.5 mg/kg BPD-MA, 100 J/cm^2, 15 minutes post injection, day 7, five mice): all were tumor free at day 7
- mice that developed tumors by day 14 ([8]; 0.5 mg/kg BPD-MA, 100 J/cm^2, 15 minutes post injection, day 14): Three of five mice
- # Tumor-Free, Day 7 ([8]; 0.5 mg/kg, 50 J/cm^2, 1 min post injection, 3 mice, interim): 3 mice
- # Tumor-Free, Day 7 ([8]; 0.5 mg/kg, 50 J/cm^2, 15 min post injection, 2 mice, interim): 2 mice
- # Tumor-Free, Day 7 [8, 11]: 0 mice
- # Tumor-Free, Day 14 [8, 11]: 0 mice
- # Tumor-Free, Day 7 column (observations on Day 2 post exposure) ([8]; 0.5 mg/kg, 75 J/cm^2, 1 min post injection, 2 mice, observed Day 2, interim): 2 mice
- # Tumor-Free, Day 7 [8, 12]: 2 mice
- # Tumor-Free, Day 14 [8, 12]: 2 mice
- # Tumor-Free, Day 7 ([8]; 0.5 mg/kg, 100 J/cm^2, 1 min post injection, 3 mice, interim): 3 mice
- # Tumor-Free, Day 7 [8, 13]: 5 mice
- # Tumor-Free, Day 14 [8, 13]: 2 mice
- # Tumor-Free, Day 7 ([8]; 0.5 mg/kg, 100 J/cm^2, 30 min post injection, 2 mice, interim): 2 mice
- # Tumor-Free, Day 7 ([8]; 1.0 mg/kg, 50 J/cm^2, 1 min post injection, 4 mice, interim): 4 mice
- # Tumor-Free, Day 7 [8, 14]: 4 mice
- # Tumor-Free, Day 14 [8, 14]: 4 mice
- # Tumor-Free, Day 7 [8, 15]: 4 mice
- # Tumor-Free, Day 14 [8, 15]: 4 mice
- # Tumor-Free, Day 7 [8, 16]: 5 mice
- # Tumor-Free, Day 14 [8, 16]: 4 mice
- # Tumor-Free, Day 7 ([8]; 1.0 mg/kg, 75 J/cm^2, 30 min post injection, 5 mice, interim): 4 mice
- # Tumor-Free, Day 7 [8, 17]: 4 mice
- # Tumor-Free, Day 14 [8, 17]: 4 mice
- tumor free, animals followed to day 14 ([8]; all regimens of Table 1, day 14, interim): most are tumor free
- survival of mouse [9]: alive
- tumor eradication [9]: the tumor was eradicated
- tumor palpability [9]: The tumor was not palpable
- BPD-MA in the tumor that was active ([10]; 3 h): 100%
- BPD-MA in the tumor that was active ([10]; 24 h): 39%
- degradation in livers and kidneys compared with tumors [10]: Both livers and kidneys degraded BPD-MA more quickly than did the tumors

Reference: patent publication US5705518A, “Method of activating photosensitive agents” (University of British Columbia, priority 1995, dated 1998)
